Results from patent publication US20260166003A1, “NOVEL APTAMER, AND COMPOSITION FOR COGNITIVE FUNCTION IMPROVEMENT AND ANTI-AGING COMPRISING APTAMER AS ACTIVE INGREDIENT” (NEXMOS CO., LTD, priority 2021, published 2026).

Tests used:
[1] = OPDA assay of vitamin C oxidation delay; assay type: biochemical; settings: L-ascorbic acid 0.1%, aptamer 0.001%, hydrogen peroxide, 900 minutes; compared with C332 and other 20 mer aptamers; FIG. 2
Description: In this case, the L-ascorbic acid was mixed at a ratio of 0.1% and the aptamer was mixed at 0.001%. Thereafter, hydrogen peroxide was added to prepare an oxidation condition, and then oxidation of L-ascorbic acid was measured by adding o-phenylenediamine (OPDA), a fluorescent dye. The degree of DHA production may be quantitatively analyzed by measuring the amount of fluorescence from DHA-OPDA generated by the reaction of DHA, an oxide of L-ascorbic acid, with OPDA. Under the above conditions, the amount of fluorescence of DHA-OPDA was measured every 2 minutes for a total of 900 minutes.

[2] = OPDA assay in gastric acid-like low pH environment; assay type: physicochemical; settings: pH between 1.4 and 1.6 with hydrochloric acid, hydrogen peroxide, 900 minutes; compared to normal condition; FIG. 3
Description: OPDA assay was used to confirm whether the vitamin C oxidation delay effect of aptamin C320 was maintained in a low pH environment similar to gastric acid in order to confirm that the effect of the substance was not reduced or eliminated by the pH environment in the stomach when ingested orally.
Thereafter, hydrogen peroxide was added to prepare an oxidation condition, and at this time, the pH was adjusted to be between 1.4 and 1.6 using hydrochloric acid, and oxidation of L-ascorbic acid was measured by adding an o-phenylenediamine (OPDA), which is a fluorescent dye. The degree of DHA production can be quantitatively analyzed by measuring the amount of fluorescence from DHA-OPDA generated by the reaction of DHA, an oxide of L-ascorbic acid, with OPDA. Under the above conditions, the fluorescence amount of DHA-OPDA was measured every 2 minutes for a total of 900 minutes.

Which results are given for “aptamin C320: 20 mer DNA aptamer, SEQ ID NO: 1, GCCAGTCTCGCGGTGGCGGC, delays oxidation of vitamin C (DNA, backbone and methylation of C not given here)”?
vitamin C oxidation delay effect (DHA-OPDA fluorescence) [1]: delays the oxidation of vitamin C to the highest extent; maintenance of vitamin C oxidation delay effect in acid condition [2]: maintained without significantly decreasing in acid condition
